Experimental data taken from article doi:10.1101/2022.09.09.507210v3, “The class XIV myosin of Toxoplasma gondii, TgMyoA, is druggable in an animal model of infection” (biorxiv, 2023).
Like-named read-outs stand apart in the source and are kept apart here.

Key:
[1] = tested on: T1, Toxoplasma gondii RH (tdTomato); assay: microbe, parasite or virus in culture; set-up: species or system HFF (host); tdTomato parasite growth in HFF cells, daily fluorescence, IC50 at day 5-6; details: HFF
T1 construct: RH
Experimental: 557 558 Parasite growth assays. Fluorescence-based growth assay. To quantify growth in the presence of compound(s), 1x10^4 559 tachyzoites were preincubated with compound for 5 minutes prior to inoculation onto 560 3 wells of a black sided, clear bottom 384-well plate containing a confluent monolayer of HFF cells. For 561 compound assays, parasites expressing tdTomato were incubated with vehicle or serial dilutions of 562 compound, maintaining a constant DMSO concentration (0.2% v/v). The fluorescent signal was 563 quantified daily for 7 days (ex 530/25, em 590/35) on a Biotek synergy 2 plate reader. The IC50 of growth 564 inhibitory compounds was quantified using GraphPad Prism. Plaque assay. 10, 100, 200, or 500 565 parasites were used to inoculate a confluent monolayer of HFF cells in a 12-well plate and incubated for 566 7 days at 37 °C, 5% CO2. Infected monolayers were then washed with phosphate-buffered saline, fixed 567 with 100% EtOH for five minutes, stained with 5X crystal violet solution (12.5 g crystal violet, 125 ml 568 100% EtOH, 500 ml 1% w/v ammonium oxalate) for 5 minutes, washed with PBS, and allowed to dry.  Figure 3: Preliminary structure-activity relationship (SAR) analysis. […] The table summarizes the activity of each of the compounds in assays measuring recombinant TgMyoA ATPase activity, parasite growth and mammalian cell toxicity; the data on which the table is based are shown in Suppl. Figures 3-5. ATPase assay data correspond to relative luminescence units × 10^−6 (mean from 3 independent replicates +/-SEM) in the presence of 20 μM compound (Suppl. Figure 3). […] Growth assay data correspond to calculated IC50 and 95% confidence interval from a 5-6 day growth assay (Suppl. Figure 4). […] Toxicity assay entries summarize the results from 72-hour CellTox™ Green toxicity and CellTiter-Glo® viability assays on both human foreskin fibroblasts and HepG2 cells. Thresholds for mild and moderate toxicity and loss of viability compared to vehicle (DMSO) controls are indicated by the colored bars on the right hand side of Suppl. […] Fluorescence was measured daily to quantify parasite growth, in the continued presence of compound, over the next 7 days. RFU = relative fluorescence units. The data shown are the mean ± SEM from two independent biological replicates, each consisting of 3 technical replicates at all time points. […] See Figure 5A for a repeat of these growth assays and IC50 calculations. […] Cell viability/growth was measured using Promega CellTiter-Glo® (top panel) and toxicity was measured using Promega CellTox™ green (bottom panel). 0.1% w/v NaN3 served as a positive control for cytotoxicity / growth inhibition. Results are plotted relative to the DMSO controls. Bars show the mean of three independent experiments ± SEM.

in vitro [2] = assay: in vitro; set-up: species or system HFF; details: human, hepg2 cells, read-out: HepG2 cells 80 uM
Experimental: (§1) The table summarizes the activity of each of the compounds in assays measuring recombinant TgMyoA ATPase activity, parasite growth and mammalian cell toxicity; the data on which the table is based are shown in Suppl. Figures 3-5. ATPase assay data correspond to relative luminescence units × 10^−6 (mean from 3 independent replicates +/-SEM) in the presence of 20 μM compound (Suppl. Figure 3). […] Growth assay data correspond to calculated IC50 and 95% confidence interval from a 5-6 day growth assay (Suppl. Figure 4). […] Toxicity assay entries summarize the results from 72-hour CellTox™ Green toxicity and CellTiter-Glo® viability assays on both human foreskin fibroblasts and HepG2 cells. Thresholds for mild and moderate toxicity and loss of viability compared to vehicle (DMSO) controls are indicated by the colored bars on the right hand side of Suppl. […] Fluorescence was measured daily to quantify parasite growth, in the continued presence of compound, over the next 7 days. RFU = relative fluorescence units. The data shown are the mean ± SEM from two independent biological replicates, each consisting of 3 technical replicates at all time points. […] See Figure 5A for a repeat of these growth assays and IC50 calculations. […] Cell viability/growth was measured using Promega CellTiter-Glo® (top panel) and toxicity was measured using Promega CellTox™ green (bottom panel). 0.1% w/v NaN3 served as a positive control for cytotoxicity / growth inhibition. Results are plotted relative to the DMSO controls. Bars show the mean of three independent experiments ± SEM.

in vitro [3] = assay: in vitro; set-up: species or system HepG2; details: human, hff cells, read-out: HFF cells 80 uM
Experimental: as §1

[4] = biological target: T2, rabbit fast skeletal muscle myosin; assay: myofibril ATPase assay; assay type: biochemical, Oryctolagus cuniculus; details: 75% calcium activation (pCa75); up to 40 μM tested
T2 construct: gene MYH4; native rabbit fast skeletal myofibrils, full length, with native light chains and thin filaments
Excerpt: myofibril ATPase assay on rabbit fast skeletal muscle myosin

Row | Structure (SMILES) | IC50 ([1]; read-out: Parasite Growth IC50) | CC50 at 72 h (in vitro [2]) | CC50 at 72 h (in vitro [3]) | IC50 [4] | IC50 ([1]; read-out: IC50 (D5))
1 | c1ccc(C2(NCc3c[nH]nc3-c3cccs3)CC2)cc1 [VEST5, 1-phenyl-N-((3-(thiophen-2-yl)-1H-pyrazol-4-yl)methyl)cyclopropan-1-amine] | 9.9 µM | > 80 µM | > 80 µM |  | 
2 | Clc1ccc(C2(NCc3c[nH]nc3-c3cccs3)CC2)cc1Cl [VEST4, 1-(3,4-dichlorophenyl)-N-((3-(thiophen-2-yl)-1H-pyrazol-4-yl)methyl)cyclopropan-1-amine] | 31 µM | > 80 µM | > 80 µM |  | 
3 | c1csc(-c2n[nH]cc2CNC2CC2)c1 [VEST1, N-((3-(thiophen-2-yl)-1H-pyrazol-4-yl)methyl)cyclopropanamine] | > 80 µM | > 80 µM | > 80 µM |  | 
4 | COc1ccc(C2(NCc3c[nH]nc3-c3ccccc3)CC2)cc1 [VEST6, 1-(4-methoxyphenyl)-N-((3-phenyl-1H-pyrazol-4-yl)methyl)cyclopropan-1-amine] | 24.9 µM | > 80 µM | > 80 µM |  | 
5 | COc1ccc(C2(NCc3ccccc3)CC2)cc1 [VEST7, N-benzyl-1-(4-methoxyphenyl)cyclopropan-1-amine] | > 80 µM | > 80 µM | > 80 µM |  | 
6 | COc1ccc(C2(NCc3cc[nH]c3)CC2)cc1 [VEST10, N-((1H-pyrrol-3-yl)methyl)-1-(4-methoxyphenyl)cyclopropan-1-amine] | 21.7 µM | > 80 µM | > 80 µM |  | 
7 | c1ccc(CNCc2c[nH]nc2-c2cccs2)cc1 [VEST12, N-benzyl-1-(3-(thiophen-2-yl)-1H-pyrazol-4-yl)methanamine] | > 80 µM | > 80 µM |  |  | 
8 | Cc1ccc(C2(NCc3c[nH]nc3-c3cccs3)CC2)cc1 [VEST3, N-((3-(thiophen-2-yl)-1H-pyrazol-4-yl)methyl)-1-(p-tolyl)cyclopropan-1-amine] | 25.4 µM |  |  |  | 
9 | COc1ccc(C2(NCc3c[nH]nc3-c3cccs3)CC2)cc1 [KNX-002, 1-(4-methoxyphenyl)-N-((3-(thiophen-2-yl)-1H-pyrazol-4-yl)methyl)cyclopropan-1-amine] | 19.7 µM | > 80 µM | > 80 µM | > 39.2 µM | 14.9 µM
10 | COc1ccc(C2(NCc3cncs3)CC2)cc1 [VEST8, 1-(4-methoxyphenyl)-N-(thiazol-5-ylmethyl)cyclopropan-1-amine] | > 80 µM | > 80 µM | > 80 µM |  | 
11 | COc1ccc(CNCc2c[nH]nc2-c2cccs2)cc1 [VEST11, N-(4-methoxybenzyl)-1-(3-(thiophen-2-yl)-1H-pyrazol-4-yl)methanamine] | > 80 µM | > 80 µM | > 80 µM |  | 
12 | CC(C)(NCc1c[nH]nc1-c1cccs1)c1ccccc1 [VEST13, 2-phenyl-N-((3-(thiophen-2-yl)-1H-pyrazol-4-yl)methyl)propan-2-amine] | 27.1 µM | > 80 µM |  |  | 
13 | Clc1ccc(C2(NCc3c[nH]nc3-c3cccs3)CC2)cc1 [VEST2, 1-(4-chlorophenyl)-N-((3-(thiophen-2-yl)-1H-pyrazol-4-yl)methyl)cyclopropan-1-amine] | 15.5 µM |  |  |  | 
14 | COc1ccc(C2(NCc3ccoc3)CC2)cc1 [VEST9, N-(furan-3-ylmethyl)-1-(4-methoxyphenyl)cyclopropan-1-amine] | > 80 µM | > 80 µM | > 80 µM |  | 
15 | COc1ccc([C@H](C)NCc2c[nH]nc2-c2cccs2)cc1 [VEST15, (S)-1-(4-methoxyphenyl)-N-((3-(thiophen-2-yl)-1H-pyrazol-4-yl)methyl)ethan-1-amine] | 39.7 µM | > 80 µM |  |  | 
16 | COc1ccc([C@@H](C)NCc2c[nH]nc2-c2cccs2)cc1 [VEST14, (R)-1-(4-methoxyphenyl)-N-((3-(thiophen-2-yl)-1H-pyrazol-4-yl)methyl)ethan-1-amine] | 44.3 µM | > 80 µM |  |  | 
